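Where inhibition never reached the appropriate level, the endpoint shown equals the highest concentration tested. Otherwise, values were interpolated linearly from a five-concentration, 48-hour dose response in 96-well plates. TGI: total growth inhibition.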
What was measured:
Assay in all cases: DTP human tumour cell line panel, 48 h
HT29 colon = test system: HT29 colon
SN12C renal = test system: SN12C renal
SNB-19 CNS = test system: SNB-19 CNS
UACC-257 melanoma = test system: UACC-257 melanoma
RXF 393 renal = test system: RXF 393 renal
HOP-92 NSCLC = test system: HOP-92 NSCLC
IGROV1 ovarian = test system: IGROV1 ovarian
KM20L2 colon = test system: KM20L2 colon
OVCAR-4 ovarian = test system: OVCAR-4 ovarian
SK-MEL-2 melanoma = test system: SK-MEL-2 melanoma
MALME-3M melanoma = test system: MALME-3M melanoma
SW-620 colon = test system: SW-620 colon
A549 NSCLC = test system: A549 NSCLC
EKVX NSCLC = test system: EKVX NSCLC
NCI-H460 lung = test system: NCI-H460 lung
SNB-75 CNS = test system: SNB-75 CNS
TK-10 renal = test system: TK-10 renal
A498 renal = test system: A498 renal
HL-60(TB) leukemia = test system: HL-60(TB) leukemia
SNB-78 CNS = test system: SNB-78 CNS
NCI-H522 lung = test system: NCI-H522 lung
DMS 114 small cell lung = test system: DMS 114 small cell lung
COLO 205 colon = test system: COLO 205 colon
MOLT-4 leukemia = test system: MOLT-4 leukemia
XF 498 CNS = test system: XF 498 CNS
CAKI-1 renal = test system: CAKI-1 renal
OVCAR-8 ovarian = test system: OVCAR-8 ovarian
DMS 273 small cell lung = test system: DMS 273 small cell lung
DLD-1 colon = test system: DLD-1 colon
SF-539 CNS = test system: SF-539 CNS
NCI-H23 lung = test system: NCI-H23 lung
HCT-116 colon = test system: HCT-116 colon
U251 CNS = test system: U251 CNS
LOX IMVI melanoma = test system: LOX IMVI melanoma
OVCAR-5 ovarian = test system: OVCAR-5 ovarian
LXFL 529 NSCLC = test system: LXFL 529 NSCLC
SF-295 CNS = test system: SF-295 CNS
786-0 renal = test system: 786-0 renal
SK-MEL-28 melanoma = test system: SK-MEL-28 melanoma
OVCAR-3 ovarian = test system: OVCAR-3 ovarian
HOP-62 NSCLC = test system: HOP-62 NSCLC
UACC-62 melanoma = test system: UACC-62 melanoma
UO-31 renal = test system: UO-31 renal
HCT-15 colon = test system: HCT-15 colon
SF-268 CNS = test system: SF-268 CNS
SK-OV-3 ovarian = test system: SK-OV-3 ovarian
M14 melanoma = test system: M14 melanoma
RPMI-8226 leukemia = test system: RPMI-8226 leukemia
M19-MEL melanoma = test system: M19-MEL melanoma
SK-MEL-5 melanoma = test system: SK-MEL-5 melanoma
ACHN renal = test system: ACHN renal
K-562 leukemia = test system: K-562 leukemia
NCI-H226 lung = test system: NCI-H226 lung
RXF-631 renal = test system: RXF-631 renal
KM12 colon = test system: KM12 colon
CCRF-CEM leukemia = test system: CCRF-CEM leukemia
HCC-2998 colon = test system: HCC-2998 colon
HOP-18 NSCLC = test system: HOP-18 NSCLC
SR leukemia = test system: SR leukemia

Measured: TGI

CCOC(=O)C(=O)C(C#N)c1ccc(Cl)cc1 (configuration not stated)
not listed: RXF-631 renal | KM12 colon | CCRF-CEM leukemia | HCC-2998 colon | HOP-18 NSCLC | SR leukemia
> 100 µM: all other assays above

COc1cc(CC(=O)O)c([N+](=O)[O-])cc1OC
not listed: XF 498 CNS | SK-MEL-5 melanoma | HOP-18 NSCLC | SR leukemia
> 100 µM: all other assays above

O=C(O)CCC1c2[nH]c3ccccc3c2CCN1Cc1ccccc1 (configuration not stated)
not listed: RXF 393 renal | XF 498 CNS | HOP-62 NSCLC | RPMI-8226 leukemia
> 100 µM: all other assays above

Fc1ccc(N=C2C=CC(=Nc3ccc(F)cc3)c3ccccc32)cc1
not listed: OVCAR-4 ovarian | DMS 114 small cell lung | CAKI-1 renal | RXF-631 renal | KM12 colon
> 100 µM: all other assays above
